Experimental data taken from patent publication US20260262643A1, “HERBICIDAL BENZOXAZINES” (FMC CORPORATION, priority 2022, published 2026).

Assays:
[1] = test system: ragweed; experiment: Test C preemergence; format: in vivo, Ambrosia artemisiifolia; conditions: preemergence, 0 to 100 scale (0 no effect, 100 complete control)
Procedure, shortened: (§1)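 Seeds sown in loam soil–sand blend received a directed preemergence soil spray of test chemical in non-phytotoxic solvent with surfactant; postemergence plants (2–10 cm, one- to two-leaf stage) were sprayed with the same formulation. Greenhouse-held 10 days, then visually rated for injury versus untreated controls, 0 (no effect) to 100 (complete control).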

[2] = test system: green foxtail; experiment: Test C postemergence; format: in vivo, Setaria viridis; conditions: postemergence, 10 days
Procedure, shortened: as §1

[3] = test system: wheat; experiment: Test C postemergence; format: in vivo, Triticum aestivum; conditions: postemergence, 10 days
Procedure, shortened: as §1

[4] = test system: blackgrass; experiment: Test C preemergence; format: in vivo, Alopecurus myosuroides; conditions: preemergence, 0 to 100 scale (0 no effect, 100 complete control)
Procedure, shortened: as §1

[5] = test system: oat, wild; experiment: Test C postemergence; format: in vivo, Avena fatua; conditions: postemergence, 10 days
Procedure, shortened: as §1

[6] = test system: corn; experiment: Test C postemergence; format: in vivo, Zea mays; conditions: postemergence, 10 days
Procedure, shortened: as §1

[7] = test system: oat, wild; experiment: Test C preemergence; format: in vivo, Avena fatua; conditions: preemergence, 0 to 100 scale (0 no effect, 100 complete control)
Procedure, shortened: as §1

[8] = test system: barnyardgrass; experiment: Test D flooded paddy test; format: in vivo, Echinochloa crus-galli; conditions: 250 g ai/ha, applied to paddy water, visual rating after 13 to 14 days, scale 0 to 100 (0 no effect, 100 complete control)
Procedure, shortened: (§2)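 Plants at the 2-leaf stage were grown in pots flooded to 3 cm, and compound was applied directly into the paddy water, with depth kept throughout. After 13–14 days in a greenhouse, injury was rated visually against untreated controls on a 0–100 scale (100 = complete control); a dash means not tested.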

[9] = test system: kochia; experiment: Test C postemergence; format: in vivo, Bassia scoparia; conditions: postemergence, 10 days
Procedure, shortened: as §1

[10] = test system: ryegrass, Italian; experiment: Test C preemergence; format: in vivo, Lolium multiflorum; conditions: preemergence, 0 to 100 scale (0 no effect, 100 complete control)
Procedure, shortened: as §1

[11] = test system: galium; experiment: Test C postemergence; format: in vivo, Galium aparine; conditions: postemergence, 10 days
Procedure, shortened: as §1

[12] = test system: ryegrass, Italian; experiment: Test C postemergence; format: in vivo, Lolium multiflorum; conditions: postemergence, 10 days
Procedure, shortened: as §1

[13] = test system: barnyardgrass; experiment: Test C postemergence; format: in vivo, Echinochloa crusgalli; conditions: postemergence, 10 days
Procedure, shortened: as §1

[14] = test system: soybean; experiment: Test C postemergence; format: in vivo, Glycine max; conditions: postemergence, 10 days
Procedure, shortened: as §1

[15] = test system: green foxtail; experiment: Test C preemergence; format: in vivo, Setaria viridis; conditions: preemergence, 0 to 100 scale (0 no effect, 100 complete control)
Procedure, shortened: as §1

[16] = test system: rice; experiment: Test D flooded paddy test; format: in vivo, Oryza sativa; conditions: 250 g ai/ha, applied to paddy water, visual rating after 13 to 14 days, scale 0 to 100 (0 no effect, 100 complete control)
Procedure, shortened: as §2

[17] = test system: sedge, umbrella; experiment: Test D flooded paddy test; format: in vivo, Cyperus difformis; conditions: 250 g ai/ha, applied to paddy water, visual rating after 13 to 14 days, scale 0 to 100 (0 no effect, 100 complete control)
Procedure, shortened: as §2

[18] = test system: pigweed, palmer; experiment: Test C preemergence; format: in vivo, Amaranthus palmeri; conditions: preemergence, 0 to 100 scale (0 no effect, 100 complete control)
Procedure, shortened: as §1

[19] = test system: soybean; experiment: Test C preemergence; format: in vivo, Glycine max; conditions: preemergence, 0 to 100 scale (0 no effect, 100 complete control)
Procedure, shortened: as §1

[20] = test system: horseweed; experiment: Test C postemergence; format: in vivo, Erigeron canadensis; conditions: postemergence, 10 days
Procedure, shortened: as §1

[21] = test system: pigweed, palmer; experiment: Test C postemergence; format: in vivo, Amaranthus palmeri; conditions: postemergence, 10 days
Procedure, shortened: as §1

[22] = test system: barnyardgrass; experiment: Test C preemergence; format: in vivo, Echinochloa crusgalli; conditions: preemergence, 0 to 100 scale (0 no effect, 100 complete control)
Procedure, shortened: as §1

[23] = test system: wheat; experiment: Test C preemergence; format: in vivo, Triticum aestivum; conditions: preemergence, 0 to 100 scale (0 no effect, 100 complete control)
Procedure, shortened: as §1

[24] = test system: ragweed; experiment: Test C postemergence; format: in vivo, Ambrosia artemisiifolia; conditions: postemergence, 10 days
Procedure, shortened: as §1

[25] = test system: corn; experiment: Test C preemergence; format: in vivo, Zea mays; conditions: preemergence, 0 to 100 scale (0 no effect, 100 complete control)
Procedure, shortened: as §1

[26] = test system: kochia; experiment: Test C preemergence; format: in vivo, Bassia scoparia; conditions: preemergence, 0 to 100 scale (0 no effect, 100 complete control)
Procedure, shortened: as §1

[27] = test system: ducksalad; experiment: Test D flooded paddy test; format: in vivo, Heteranthera limosa; conditions: 250 g ai/ha, applied to paddy water, visual rating after 13 to 14 days, scale 0 to 100 (0 no effect, 100 complete control)
Procedure, shortened: as §2

[28] = test system: blackgrass; experiment: Test C postemergence; format: in vivo, Alopecurus myosuroides; conditions: postemergence, 10 days
Procedure, shortened: as §1

[29] = 125 g ai/ha, 0 to 100 scale, 0 no effect, 100 complete control
[30] = 500 g ai/ha, 0 to 100 scale (0 no effect, 100 complete control)

## CC(C)c1ncn(-c2cccc(C(=O)N3CC(C(F)(F)F)Oc4c(Cl)cccc43)c2)n1 (single isomer, unassigned) [Compound 288]
[1]; 500 g ai/ha
  Ragweed plant response rating: 0
[1]; Test C, 125 g ai/ha
  Ragweed plant response rating: 0
[2]; [29]
  Plant response rating, Foxtail, Green: 10
[2]; [30]
  Plant response rating, Foxtail, Green: 20
[3]; [29]
  Plant response rating, Wheat: 10
[3]; [30]
  Plant response rating, Wheat: 20
[4]; 500 g ai/ha
  Blackgrass plant response rating: 60
[4]; Test C, 125 g ai/ha
  Blackgrass plant response rating: 10
[5]; [29]
  Plant response rating, Oat, Wild: 0
[5]; [30]
  Plant response rating, Oat, Wild: 0
[6]; [29]
  Plant response rating, Corn: 0
[6]; [30]
  Plant response rating, Corn: 10
[7]; 500 g ai/ha
  Oat, Wild plant response rating: 20
[7]; Test C, 125 g ai/ha
  Oat, Wild plant response rating: 20
[8]
  Plant response rating, Barnyardgrass (Flood): 0
[9]; [29]
  Plant response rating, Kochia: 40
[9]; [30]
  Plant response rating, Kochia: 80
[10]; 500 g ai/ha
  Ryegrass, Italian plant response rating: 80
[10]; Test C, 125 g ai/ha
  Ryegrass, Italian plant response rating: 80
[11]; [29]
  Plant response rating, Galium: 60
[11]; [30]
  Plant response rating, Galium: 50
[12]; [29]
  Plant response rating, Ryegrass, Italian: 0
[12]; [30]
  Plant response rating, Ryegrass, Italian: 20
[13]; [29]
  Plant response rating, Barnyardgrass: 10
[13]; [30]
  Plant response rating, Barnyardgrass: 10
[14]; [29]
  Plant response rating, Soybean: 60
[14]; [30]
  Plant response rating, Soybean: 80
[15]; 500 g ai/ha
  Foxtail, Green plant response rating: 70
[15]; Test C, 125 g ai/ha
  Foxtail, Green plant response rating: 0
[16]
  Plant response rating, Rice (Flood): 0
[17]
  Plant response rating, Sedge, Umbrella (Flood): 0
[18]; 500 g ai/ha
  Pigweed, Palmer plant response rating: 80
[18]; Test C, 125 g ai/ha
  Pigweed, Palmer plant response rating: 50
[19]; 500 g ai/ha
  Soybean plant response rating: 40
[19]; Test C, 125 g ai/ha
  Soybean plant response rating: 40
[20]; [29]
  Plant response rating, Horseweed: 0
[20]; [30]
  Plant response rating, Horseweed: 0
[21]; [29]
  Plant response rating, Pigweed, Palmer: 10
[21]; [30]
  Plant response rating, Pigweed, Palmer: 50
[22]; 500 g ai/ha
  Barnyardgrass plant response rating: 30
[22]; Test C, 125 g ai/ha
  Barnyardgrass plant response rating: 0
[23]; 500 g ai/ha
  Wheat plant response rating: 20
[23]; Test C, 125 g ai/ha
  Wheat plant response rating: 0
[24]; [29]
  Plant response rating, Ragweed: 30
[24]; [30]
  Plant response rating, Ragweed: 30
[25]; 500 g ai/ha
  Corn plant response rating: 10
[25]; Test C, 125 g ai/ha
  Corn plant response rating: 0
[26]; 500 g ai/ha
  Kochia plant response rating: 50
[26]; Test C, 125 g ai/ha
  Kochia plant response rating: 10
[27]
  Plant response rating, Ducksalad (Flood): 0
[28]; [29]
  Plant response rating, Blackgrass: 0
[28]; [30]
  Plant response rating, Blackgrass: 10
